# Measured values taken from US8114885B2, “Chemical compounds” (GlaxoSmithKline LLC, priority 2000, dated 2012).
# Test system: HUVEC
# Assay: Human Umbilical Vein Endothelial Cell (HUVEC) proliferation assay (BrdU incorporation)
# Type: cell-based
# Settings: VEGF-stimulated HUVEC, 72 hrs, read-out: Inhibition of HUVEC proliferation IC50
# Method: Human Umbilical Vein Endothelial Cell (HUVEC) Proliferation Assay (BrdU Incorporation) Materials
# HUVEC cells and EGM-MV (Endothelial cell growth medium—microvascular) were purchased from Clonetics (San Diego, Calif.). VEGF and bFGF were purchased from R&D Systems (Minneapolis, Minn.). Anti-BrdU antibody was obtained from Chemicon International (Temecula, Calif.).
# HUVECs were routinely maintained in EGM-MV medium and were used within passage 7. HUVECs were plated at a density of 2500 cells/well in M199 medium containing 5% FBS (Hyclone) in type I collagen coated plate (Becton Dickinson). The plate was incubated at 37° C. overnight. The medium was removed by aspiration, and test compounds were added to each well in a volume of 0.1 ml/well in serum-free M199 medium. Compound concentrations ranged from 1.5 nM to 30 micromolar. The plate was incubated for 30 min at 37° C. Another 0.1 ml of serum-free M199 medium containing BSA and VEGF (or bFGF) was added to give a final concentration of 0.1% BSA and 10 ng/ml VEGF (0.3 ng/ml bFGF). The plate was incubated at 37° C. for 72 hrs. BrdU was added to each well after the first 48 hrs to give a concentration of 10 micromolar. The calorimetric ELISA assay was performed according to manufacturer's (Roche Molecular Sciences) instructions, with detection by absorbance reading at 450 nm. Results were plotted as concentration of test compound vs. absorbance to give an IC50 value for inhibition of BrdU incorporation.
row,SMILES,IC50 [nM]
1,"Cc1n[nH]c2cc(N(C)c3ccnc(Nc4cccc(CNS(C)(=O)=O)c4)n3)ccc12 [Example 59, N-[3-({4-[methyl (3-methyl-1H-indazol-6-yl)amino]-2-pyrimidinyl}amino)benzyl]methanesulfonamide]",1 to 200
2,"Cc1n[nH]c2cc(N(C)c3ccnc(Nc4ccc(Cl)c(S(N)(=O)=O)c4)n3)ccc12 [Example 60, 2-chloro-5-({4-[methyl(3-methyl-1H-indazol-6-yl)amino]-2-pyrimidinyl}amino)benzenesulfonamide]",1 to 200
3,"Cc1n[nH]c2cc(N(C)c3ccnc(Nc4ccc(S(N)(=O)=O)c(Cl)c4)n3)ccc12 [Example 61, 2-chloro-4-({4-[methyl(3-methyl-1H-indazol-6-yl)amino]-2-pyrimidinyl}amino)benzenesulfonamide]",201 to 500
4,"Cc1n[nH]c2cc(N(C)c3ccnc(Nc4cc(S(N)(=O)=O)ccc4Cl)n3)ccc12 [Example 62, 4-chloro-3-({4-[methyl(3-methyl-1H-indazol-6-yl)amino]-2-pyrimidinyl}amino)benzenesulfonamide]",1 to 200
5,"Cc1cc(S(N)(=O)=O)ccc1Nc1nccc(N(C)c2ccc3c(C)n[nH]c3c2)n1 [Example 63, 3-methyl-4-({4-[methyl(3-methyl-1H-indazol-6-yl)amino]-2-pyrimidinyl}amino)benzenesulfonamide]",201 to 500
6,"Cc1ccc(Nc2nccc(N(C)c3ccc4c(C)n[nH]c4c3)n2)cc1S(N)(=O)=O [Example 64, 2-methyl-5-({4-[methyl(3-methyl-1H-indazol-6-yl)amino]-2-pyrimidinyl}amino)benzenesulfonamide]",1 to 200
7,"Cc1ccc(S(N)(=O)=O)cc1Nc1nccc(N(C)c2ccc3c(C)n[nH]c3c2)n1 [Example 65, 4-methyl-3-({4-[methyl(3-methyl-1H-indazol-6-yl)amino]-2-pyrimidinyl}amino)benzenesulfonamide]",1 to 200
8,"Cc1n[nH]c2cc(N(C)c3ccnc(Nc4cccc([S+](C)[O-])c4)n3)ccc12 (stereo not drawn) [Example 66, N^4-methyl-N^4-(3-methyl-1H-indazol-6-yl)-N^2-[3-(methylsulfinyl)phenyl]-2,4-pyrimidinediamine]",1 to 200
9,"Cc1n[nH]c2cc(N(C)c3ccnc(Nc4cc(S(C)(=O)=O)ccc4F)n3)ccc12 [Example 67, N^2-[2-fluoro-5-(methylsulfonyl)phenyl]-N^4-methyl-N^4-(3-methyl-1H-indazol-6-yl)-2,4-pyrimidinediamine]",201 to 500
10,"COc1ccc(S(C)(=O)=O)cc1Nc1nccc(N(C)c2ccc3c(C)n[nH]c3c2)n1 [Example 68, N^2-[2-methoxy-5-(methylsulfonyl)phenyl]-N^4-methyl-N^4-(3-methyl-1H-indazol-6-yl)-2,4-pyrimidinediamine]",1 to 200
11,"Cc1ccc(Nc2nccc(N(C)c3ccc4c(C)n(C)nc4c3)n2)cc1S(N)(=O)=O [Example 69, 5-({4-[(2,3-dimethyl-2H-indazol-6-yl)(methyl)amino]pyrimidin-2-yl}amino)-2-methylbenzenesulfonamide]",1 to 200
12,"Cc1c2ccc(N(C)c3ccnc(Nc4cccc(S(N)(=O)=O)c4)n3)cc2nn1C [Example 70, 3-({4-[(2,3-dimethyl-2H-indazol-6-yl)(methyl)amino]pyrimidin-2-yl}amino)benzenesulfonamide]",1 to 200
13,"Cc1c2ccc(N(C)c3ccnc(Nc4ccc(CCS(N)(=O)=O)cc4)n3)cc2nn1C [Example 71, 2-[4-({4-[(2,3-dimethyl-2H-indazol-6-yl)(methyl)amino]pyrimidin-2-yl}amino)phenyl]ethanesulfonamide]",1 to 200
14,"Cc1c2ccc(N(C)c3ccnc(Nc4ccc(CS(C)(=O)=O)cc4)n3)cc2nn1C [Example 72, N^4-(2,3-dimethyl-2H-indazol-6-yl)-N^4-methyl-N^2-{4-[(methylsulfonyl)methyl]phenyl}pyrimidine-2,4-diamine]",1 to 200
15,"CN(c1ccc2c(CO)n(C)nc2c1)c1ccnc(Nc2cccc(S(N)(=O)=O)c2)n1 [Example 73, 3-({4-[[3-(hydroxymethyl)-2-methyl-2H-indazol-6-yl](methyl)amino]pyrimidin-2-yl}amino)benzenesulfonamide]",1 to 200
16,"Cc1nc2cc(N(C)c3ccnc(Nc4cccc(S(N)(=O)=O)c4)n3)ccc2n1C [Example 74, 3-({4-[(1,2-dimethyl-1H-benzimidazol-5-yl)(methyl)amino]pyrimidin-2-yl}amino)benzenesulfonamide]",1 to 200
17,"CN(c1ccc2c(c1)nc(Cc1ccccc1)n2C)c1ccnc(Nc2cccc(S(N)(=O)=O)c2)n1 [Example 75, 3-({4-[(2-benzyl-1-methyl-1H-benzimidazol-5-yl)(methyl)amino]pyrimidin-2-yl}amino)benzenesulfonamide]",1 to 200
18,"CCn1nc2cc(N(C)c3ccnc(Nc4cccc(S(N)(=O)=O)c4)n3)ccc2c1C [Example 76, 3-({4-[(2-ethyl-3-methyl-2H-indazol-6-yl)(methyl)amino]pyrimidin-2-yl}amino)benzenesulfonamide]",1 to 200
19,"Cc1c2ccc(N(C)c3ccnc(Nc4cccc(S(N)(=O)=O)c4)n3)cc2nn1Cc1cccc(Cl)c1 [Example 77, 3-({4-[[2-(3-chlorobenzyl)-3-methyl-2H-indazol-6-yl](methyl)amino]pyrimidin-2-yl}amino)benzenesulfonamide]",1 to 200
20,"Cc1c2ccc(N(C)c3ncnc(Nc4cccc(S(N)(=O)=O)c4)n3)cc2nn1C [Example 78, 3-({4-[(2,3-dimethyl-2H-indazol-6-yl)(methyl)amino]-1,3,5-triazin-2-yl}amino)benzenesulfonamide]",1 to 200
21,"Cc1ccc(Nc2ncnc(N(C)c3ccc4c(C)n(C)nc4c3)n2)cc1S(N)(=O)=O [Example 79, 5-({4-[(2,3-dimethyl-2H-indazol-6-yl)(methyl)amino]-1,3,5-triazin-2-yl}amino)-2-methylbenzenesulfonamide]",201 to 500
